Patent US20150160193A1, “TUMOR CELL ISOLATION/PURIFICATION PROCESS AND METHODS FOR USE THEREOF” (DIATECH ONCOLOGY, priority 2012, published 2015)
Like-named read-outs stand apart in the source and are kept apart here.

Assays:
[1] = tested on: Purified breast cancer cells from 67 patient (Pt) biopsies; experiment: MiCK assay of drug-induced apoptosis, breast cancer specimens; assay type: cell-based, human; details: for KU Mean / KU Median: kinetic units of apoptosis; for KU Mean: mean over N patient samples (at least 9 per drug); for KU Median: median over N patient samples; for % >1: share of samples with KU >1; for % >3: share of samples with KU >3; for Mean Difference (95% CI) of KU vs Vincristine: drug minus Vincristine
Experimental: Apoptosis(KU)=(VmaxDrug Candidate Treated−VmaxControl)×60×X/(ODcontrol−ODblank)
Within 24 to 48 hours of collection, the specimen was minced, digested with 0.25% trypsin and 0.08% DNase for 1-2 hours at 37 C.°, and then filtered through a 100 micrometer cell strainer. When necessary, non-viable cells were removed by density gradient centrifugation. The cell suspension was then incubated for 30 min at 37° C. in a tissue culture flask to remove macrophages by adherence. For epithelial tumors lymphocytes were removed by 30 minute incubation with CD2 antibody conjugated magnetic beads for T lymphocytes and CD19 antibody conjugated magnetic beads for B lymphocytes. Remaining macrophages were removed, if necessary, using CD14 antibody conjugated magnetic beads. The final cell suspension was plated into a 96-well half-area plate, 120 microliter aliquot per well. The plate was incubated overnight at 37° C. with 5% carbon dioxide humidified atmosphere. 5×10^4 to 1.5×10^5 cells were seeded per well depending on the cell volume to give adequate well-bottom coverage.
Within 24 to 48 hours of collection, the specimen was treated as follows in order to purify and isolate cells from solid tumors: • Take the specimen out of the transport tube. • Put in a petri dish in 13 ml of PBS+high concentration of antibiotics (200 units/ml Penicillin+200 μg/ml streptomycin) and take measurements and picture of the specimen. […] In that case, one may make the determination to do a “pre-filtration” using sterile gauze over a 50 ml tube. Then proceed with the cell strainer filtration process referenced above. • Centrifuge the filtered cell suspension 1500 RPM 5 min • Discard the supernatant. To the pellet, add 5 ml of red blood cell lysis solution (standard NH4Cl containing lysis solution: Nh4Cl0.15M+KHCO3 10 mM+EDTA-4Na 0.1 mM, pH 7.2), incubate 2-3 min and add 5 ml of RPMI 10% FBS. • Centrifuge 5 min 1500 RPM. Resuspend the pellet in RPMI 10% FBS (1-10 ml depending on the pellet size). • Collect the second fraction in the enzyme and repeat the steps above. • Check the viability of all fractions and pool. Do a cytospin stain with Wright Giemsa to verify the cell content of the population. NOTE: this is done numerous times during the process of purification. • 3) When necessary, non-viable cells were removed by density gradient centrifugation. • Density gradient centrifugation (optiprep): first layer=2 ml cells+4.45 ml optiprep 40% in RPMI, second layer=optiprep 22.5% in RPMI, 3rd layer=0.5 ml of RPMI. Centrifuge at 2000 RPM for 20 min • Collect the viable cell layer, add 10 ml of RPMI 10% FBS, centrifuge at 1500 RPM for 5 min • Resuspend the pellet in RPMI 10% FBS (volume depends on the pellet size and on the next step required). • If mucin is present in the specimen: resuspend the pellet in 10 ml of PBS+20 mM DTT and incubate at 4° C. for 30 min to disintegrate the mucin. Wash with RPMI 1500 rpm for 5 min Resuspend the pellet in RPMI 10% FBS. • If the specimen is highly necrotic with presence of debris: Percoll 20% in HBSS, centrifuge at 800×g for 10 min • 4) The cell suspension was then incubated for 20 min at 37° C. in a tissue culture flask to remove macrophages by adherence. • The size and quantity of the flask and the volume used depends on the amount of cells.

[2] = tested on: neoplastic cells collected from spleen and abdominal tumor biopsy specimens; experiment: MiCK assay, patient specific cancer cell testing (Example 10); assay type: cell-based, human
Experimental: The experiments were conducted on neoplastic cells collected from spleen and abdominal tumor biopsy specimens from a person. The tumor specimens were of an unknown primary. The experiment consisted of using a MiCK assay, according to the present disclosure, to test the effectiveness of 37 potential anti-cancer drugs, combinations of these drugs, and various concentrations of these drugs.
Apoptotic readings greater than 5.0KU in the MiCK assay are considered to be highly sensitive and are associated with a good clinical response. […] It should be noted that the alkylating agents cyclophosphamide and ifosfamide require hepatic metabolic transformation to their active metabolite, 4HC and 4HI respectively, and therefore cannot be tested directly in vitro. For the MiCK assay their active metabolites, 4HC and 4HI respectively were used.

[3] = KU compared per patient, % of 11 patients
[4] = person, tumor of unknown primary, maximum apoptotic response over the concentrations tested
[5] = KU compared per patient, % of 24 patients
[6] = KU compared per patient, % of 35 patients
[7] = KU compared per patient, % of 14 patients

## O=P1(NCCCl)OCCCN1CCCl (stereo not drawn) [Ifosfamide, ifosfamide]
[1]; [3]
  Ifosf > Cytox + 0.57: (0%)
[1]
  KU Mean: 1.7 KU
  KU Median: 1.5 KU
[2]; [4]
  Max Resp. (KU): 2.6 KU

## CN(Cc1cnc2nc(N)nc(N)c2n1)c1ccc(C(=O)N[C@@H](CCC(=O)O)C(=O)O)cc1 [Methotrexate, methotrexate]
[1]
  KU Mean: 0.9 KU
  KU Median: 0.9 KU
[2]; [4]
  Max Resp. (KU): 0.8 KU

## N.N.O=C([O-])C1(C(=O)[O-])CCC1.[Pt+2] [Carbo, Carboplatin]
[1]; [5]
  Carbo = Cisplatin +/− 0.57 and both > 1: (17%)
  Carbo > Cisplatin by more than 0.57 and Carbo > 1: (8%)
  Cisplatin and Carbo both < 1: (17%)
[1]
  KU Mean: 1.6 KU
  KU Median: 1.6 KU
  % >1: 67%
  % >3: 13%
[2]; [4]
  Max Resp. (KU): 6.0 KU

## O=C1[O][Pt]2([NH][C@@H]3CCCC[C@H]3[NH]2)[O]C1=O [Oxali, oxaliplatin]
[1]; [3]
  Carbo and Cisplatin and Oxali < 1: (9%)
  Max (Carbo or Cisplatin) = Oxali +/− 0.57 and both > 1: (36%)
  Max (Carbo or Cisplatin) > Oxali by more than 0.57 and Max (Carbo or Cisplatin) > 1: (36%)
  Oxali > Max (Carbo or Cisplatin) + 0.57: (9%)
[1]
  KU Mean: 1.9 KU
  KU Median: 1.8 KU
  % >1: 82%
  % >3: 9%
[1]; patient pairwise comparison, drug minus Carbo
  Mean Difference (95% CI) of KU vs Carbo: 0.34 KU
[2]
  Max Resp. (KU): 6.7 KU

## CC(=O)O[C@@]12CO[C@@H]1C[C@H](O)[C@@]1(C)C(=O)[C@H](O)C3=C(C)[C@@H](OC(=O)[C@H](O)[C@@H](NC(=O)OC(C)(C)C)c4ccccc4)C[C@@](O)([C@@H](OC(=O)c4ccccc4)[C@H]21)C3(C)C [Taxotere, docetaxel]
[1]; [6]
  Taxol and Taxotere < 1: (14%)
  Taxotere = Taxol +/− 0.57 and both > 1: (17%)
  Taxotere > Taxol by more than 0.57 and Taxotere > 1: (37%)
[1]; KU compared per patient, % of 35 patients, listed as docetaxel
  Taxotere > Taxol by more than 0.57 and Taxotere > 1: 37%
[1]
  KU Mean: 2.1 KU
  KU Median: 1.9 KU
[1]; patient pairwise comparison, drug minus Abraxane
  Mean Difference (95% CI) of KU vs Abraxane: 0.98 KU
[1]; patient pairwise comparison, drug minus Taxol
  Mean Difference (95% CI) of KU vs Taxol: 0.05 KU
[2]; [4]
  Max Resp. (KU): 2.3 KU

## CCC1=C[C@@H]2CN(C1)Cc1c([nH]c3ccccc13)[C@@](C(=O)OC)(c1cc3c(cc1OC)N(C)[C@H]1[C@@](O)(C(=O)OC)[C@H](OC(C)=O)[C@]4(CC)C=CCN5CC[C@]31[C@@H]54)C2 [Vinor, vinorelbine]
[1]; [7]
  Max (Vcr or Vnbl) > Vinor + 0.57: (0%)
  Vcr and Vnbl and Vinor < 1: (14%)
  Vinor = Max (Vcr or Vnbl) +/− 0.57 and both > 1: (36%)
  Vinor > Max (Vcr or Vnbl) by more than 0.57 and Vinroel > 1: (29%)
[1]
  KU Mean: 1.8 KU
  KU Median: 1.5 KU
[1]; patient pairwise comparison
  Mean Difference (95% CI) of KU vs Vincristine: 0.63 KU
[1]; patient pairwise comparison, listed as vinorelbine
  Mean Difference (95% CI) of KU vs Vincristine: APOP>vincristine
[1]; patient pairwise comparison, drug minus Vnbl
  Mean Difference (95% CI) of KU vs Vnbl: 0.14 KU
[2]; [4]
  Max Resp. (KU): 3.1 KU

## COc1cccc2c1C(=O)c1c(O)c3c(c(O)c1C2=O)C[C@@](O)(C(=O)CO)C[C@@H]3O[C@H]1C[C@H](N)[C@H](O)[C@H](C)O1 [Doxo, doxorubicin]
[1]; KU compared per patient, % of 9 patients
  Doxo > Doxil + 0.57: 4/9 (44%)
[1]; KU compared per patient, % of 34 patients
  Doxo > Epi + 0.57: 3/34 (9%)
[1]
  KU Mean: 1.9 KU
  KU Median: 1.6 KU
[1]; patient pairwise comparison, drug minus Doxil
  Mean Difference (95% CI) of KU vs Doxil: 0.56 (−0.07 to 1.18) KU
[1]; patient pairwise comparison, drug minus Mitox
  Mean Difference (95% CI) of KU vs Mitox: 0.63 KU
[2]; [4]
  Max Resp. (KU): 3.5 KU
